pIC50: −log10 of the molar value. One block for each compound: values may come before it.
Legend:
[1] = target: T1, human SCD1 (Homo sapiens, UniProt O00767); experiment: Growth inhibition of yeast strain expressing human SCD1 as sole desaturase (OLE1 deleted), OD600 readout; format: cell-based; conditions: yeast strain expressing human SCD1 as sole desaturase; growth (OD600) after 40 h at 30° C.; read-out: SCD1 IC50
T1 construct: expressed in transfected cells; host or cells: yeast strain with OLE1 deleted, plasmid-borne human SCD1 (selected in SD-Ura)
T1 sequence (O00767 1-359): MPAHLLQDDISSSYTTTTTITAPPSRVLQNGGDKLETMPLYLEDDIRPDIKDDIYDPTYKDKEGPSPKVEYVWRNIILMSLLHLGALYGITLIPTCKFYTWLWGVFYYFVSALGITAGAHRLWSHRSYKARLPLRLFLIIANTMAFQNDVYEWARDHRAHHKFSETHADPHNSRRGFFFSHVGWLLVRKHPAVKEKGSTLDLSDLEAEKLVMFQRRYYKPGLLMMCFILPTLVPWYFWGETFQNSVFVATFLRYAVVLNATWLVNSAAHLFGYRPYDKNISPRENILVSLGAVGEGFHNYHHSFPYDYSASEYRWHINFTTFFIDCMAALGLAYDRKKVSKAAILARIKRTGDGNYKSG

[2] = target: T2, human SCD5 (Homo sapiens, UniProt Q86SK9); experiment: Growth inhibition of yeast strain expressing human SCD5 as sole desaturase (OLE1 deleted), OD600 readout; format: cell-based; conditions: yeast strain expressing human SCD5 as sole desaturase; growth (OD600) after 40 h at 30° C.; read-out: SCD5 IC50
T2 construct: expressed in transfected cells; host or cells: yeast strain with OLE1 deleted, plasmid-borne human SCD5 (selected in SD-Ura)
T2 sequence (Q86SK9 1-330): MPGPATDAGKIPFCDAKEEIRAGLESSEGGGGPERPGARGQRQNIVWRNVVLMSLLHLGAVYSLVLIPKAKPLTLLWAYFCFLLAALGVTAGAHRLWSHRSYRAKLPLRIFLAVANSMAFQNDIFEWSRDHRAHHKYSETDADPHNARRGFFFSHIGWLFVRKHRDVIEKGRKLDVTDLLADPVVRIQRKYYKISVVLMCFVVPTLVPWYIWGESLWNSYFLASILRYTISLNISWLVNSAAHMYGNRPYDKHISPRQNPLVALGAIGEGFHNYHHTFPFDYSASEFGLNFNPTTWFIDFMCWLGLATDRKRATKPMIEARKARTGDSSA

SMILES: Cn1ccc(C(=O)Nc2ccc(Cc3ccc(F)c(F)c3)cn2)n1 [Compound 92, N-(5-(3,4-difluorobenzyl)pyridin-2-yl)-1-methyl-1H-pyrazole-3-carboxamide]
- pIC50 [1]: 6.96
- pIC50 [2]: 7.70

SMILES: Cn1ccc(C(=O)Nc2ccc(Cc3ccc(F)cc3)cn2)n1 [Compound 93, N-(5-(4-fluorobenzyl)pyridin-2-yl)-1-methyl-1H-pyrazole-3-carboxamide]
- pIC50 [1]: 6.26
- pIC50 [2]: 7.70

SMILES: Cn1cc(C(=O)Nc2ccc(Cc3cccc(Cl)c3)cn2)cn1 [Compound 94, N-(5-(3-chlorobenzyl)pyridin-2-yl)-1-methyl-1H-pyrazole-4-carboxamide]
- pIC50 [1]: 7.52
- pIC50 [2]: 8.00

SMILES: Cn1ccc(C(=O)Nc2ccc(Cc3cc(F)cc(C#N)c3)cn2)n1 [Compound 96, N-(5-(3-cyano-5-fluorobenzyl)pyridin-2-yl)-1-methyl-1H-pyrazole-3-carboxamide]
- pIC50 [1]: 5.97
- pIC50 [2]: 6.89

SMILES: CCn1ccc(C(=O)Nc2ccc(Cc3cc(F)cc(F)c3)cn2)n1 [Compound 97, N-(5-(3,5-difluorobenzyl)pyridin-2-yl)-1-ethyl-1H-pyrazole-3-carboxamide]
- pIC50 [1]: 5.96
- pIC50 [2]: 7.70

SMILES: CCn1ccc(C(=O)Nc2ccc(Cc3ccc(F)c(F)c3)cn2)n1 [Compound 98, N-(5-(3,4-difluorobenzyl)pyridin-2-yl)-1-ethyl-1H-pyrazole-3-carboxamide]
- pIC50 [1]: 5.53
- pIC50 [2]: 7.40

SMILES: CCn1ccc(C(=O)Nc2ccc(Cc3cc(F)cc(Cl)c3)cn2)n1 [Compound 99, N-(5-(3-chloro-5-fluorobenzyl)pyridin-2-yl)-1-ethyl-1H-pyrazole-3-carboxamide]
- pIC50 [1]: 6.85
- pIC50 [2]: 8.00

SMILES: CCn1ccc(C(=O)Nc2ccc(Cc3ccc(F)cc3)cn2)n1 [Compound 102, 1-ethyl-N-(5-(4-fluorobenzyl)pyridin-2-yl)-1H-pyrazole-3-carboxamide]
- pIC50 [1]: 4.99
- pIC50 [2]: 7.10

SMILES: Cc1nnc(C(=O)Nc2ccc(Cc3cccc(Cl)c3)cn2)o1 [Compound 104, N-(5-(3-chlorobenzyl)pyridin-2-yl)-5-methyl-1,3,4-oxadiazole-2-carboxamide]
- pIC50 [1]: 7.40
- pIC50 [2]: 7.40

SMILES: CN1N=C(C(=O)Nc2ccc(Cc3cccc(Cl)c3)cn2)CC1=O [Compound 105, N-(5-(3-chlorobenzyl)pyridin-2-yl)-1-methyl-5-oxo-4,5-dihydro-1H-pyrazole-3-carboxamide]
- pIC50 [1]: < 4.35
- pIC50 [2]: 6.08

SMILES: Cn1nc(C(=O)Nc2ccc(Cc3cccc(F)c3)cn2)cc1O [Compound 106, N-(5-(3-fluorobenzyl)pyridin-2-yl)-5-hydroxy-1-methyl-1H-pyrazole-3-carboxamide]
- pIC50 [1]: < 4.35
- pIC50 [2]: 5.91

SMILES: Cn1nccc(NC(=O)c2ccc(Cc3cccc(F)c3)cn2)c1=O [Compound 109, 5-(3-fluorobenzyl)-N-(2-methyl-3-oxo-2,3-dihydropyridazin-4-yl)picolinamide]
- pIC50 [1]: 6.43
- pIC50 [2]: 6.55

SMILES: COCc1ncc(C(=O)Nc2ccc(Cc3cccc(Cl)c3)cn2)c(OC)n1 [Compound 110, N-(5-(3-chlorobenzyl)pyridin-2-yl)-4-methoxy-2-(methoxymethyl)pyrimidine-5-carboxamide]
- pIC50 [1]: 5.40
- pIC50 [2]: 6.66

SMILES: O=C(Nc1ccc(Cc2ccc(F)c(Cl)c2)cn1)c1ccc(CO)nc1 [Compound 112, N-(5-(3-chloro-4-fluorobenzyl)pyridin-2-yl)-6-(hydroxymethyl)nicotinamide]
- pIC50 [1]: 8.00
- pIC50 [2]: 8.00

SMILES: Cc1nccc(C(=O)Nc2ccc(Cc3ccc(F)c(C#N)c3)cn2)n1 [Compound 113, N-(5-(3-cyano-4-fluorobenzyl)pyridin-2-yl)-2-methylpyrimidine-4-carboxamide]
- pIC50 [1]: 7.10
- pIC50 [2]: 8.00

SMILES: Cc1nccc(C(=O)Nc2ccc(Cc3cccc(Cl)c3)cn2)n1 [Compound 114, N-(5-(3-chlorobenzyl)pyridin-2-yl)-2-methylpyrimidine-4-carboxamide]
- pIC50 [1]: 7.30
- pIC50 [2]: 8.00

SMILES: O=C(Nc1ccc(Cc2ccc(F)cc2)cn1)c1ccc(CO)nc1 [Compound 116, N-(5-(4-fluorobenzyl)pyridin-2-yl)-6-(hydroxymethyl)nicotinamide]
- pIC50 [1]: 8.00
- pIC50 [2]: 8.00

SMILES: Cn1cc(C(=O)Nc2ccc(Cc3cccc(F)c3)cn2)cc(F)c1=O [Compound 117, 5-fluoro-N-(5-(3-fluorobenzyl)pyridin-2-yl)-1-methyl-6-oxo-1,6-dihydropyridine-3-carboxamide]
- pIC50 [1]: 6.20
- pIC50 [2]: 7.15

SMILES: CC1CC(C(=O)Nc2ccc(Cc3cccc(F)c3)cn2)=NN(C)C1=O (stereo not drawn) [Compound 118, N-(5-(3-fluorobenzyl)pyridin-2-yl)-1,5-dimethyl-6-oxo-1,4,5,6-tetrahydropyridazine-3-carboxamide]
- pIC50 [1]: < 4.35
- pIC50 [2]: 6.36

SMILES: O=C(Nc1ccc(Cc2cccc(F)c2)cn1)c1ccc(CO)nc1 [Compound 119, N-(5-(3-fluorobenzyl)pyridin-2-yl)-6-(hydroxymethyl)nicotinamide]
- pIC50 [1]: 8.00
- pIC50 [2]: 8.00

SMILES: N#Cc1ccc(C(=O)Nc2ccc(Cc3cccc(Cl)c3)cn2)cn1 [Compound 120, N-(5-(3-chlorobenzyl)pyridin-2-yl)-6-cyanonicotinamide]
- pIC50 [1]: < 4.35
- pIC50 [2]: 7.52

Other lines, results leading:

- pIC50 [1]: < 4.35
- pIC50 [2]: 8.00
SMILES: Cn1ccc(NC(=O)c2ccc(Cc3cccc(F)c3)cn2)n1 [Compound 95, 5-(3-fluorobenzyl)-N-(1-methyl-1H-pyrazol-3-yl)picolinamide]

- pIC50 [1]: 5.76
- pIC50 [2]: 7.70
SMILES: CCn1ccc(C(=O)Nc2ccc(Cc3cccc(Cl)c3)cn2)n1 [Compound 100, N-(5-(3-chlorobenzyl)pyridin-2-yl)-1-ethyl-1H-pyrazole-3-carboxamide]

- pIC50 [1]: 5.97
- pIC50 [2]: 7.70
SMILES: CCn1ccc(C(=O)Nc2ccc(Cc3cccc(F)c3)cn2)n1 [Compound 101, 1-ethyl-N-(5-(3-fluorobenzyl)pyridin-2-yl)-1H-pyrazole-3-carboxamide]

- pIC50 [1]: 6.80
- pIC50 [2]: 7.10
SMILES: Cc1nnc(C(=O)Nc2ccc(Cc3cccc(Cl)c3)cn2)s1 [Compound 103, N-(5-(3-chlorobenzyl)pyridin-2-yl)-5-methyl-1,3,4-thiadiazole-2-carboxamide]

- pIC50 [1]: < 4.35
- pIC50 [2]: 5.97
SMILES: Cc1cc(C(=O)Nc2ccc(Cc3cccc(F)c3)cn2)no1 [Compound 107, N-(5-(3-fluorobenzyl)pyridin-2-yl)-5-methylisoxazole-3-carboxamide]

- pIC50 [1]: 5.12
- pIC50 [2]: 5.85
SMILES: Cn1cc(C(=O)Nc2ccc(Cc3cccc(Cl)c3)cn2)ncc1=O [Compound 108, N-(5-(3-chlorobenzyl)pyridin-2-yl)-4-methyl-5-oxo-4,5-dihydropyrazine-2-carboxamide]

- pIC50 [1]: 8.00
- pIC50 [2]: 8.00
SMILES: O=C(Nc1ccc(Cc2cc(F)cc(Cl)c2)cn1)c1ccc(CO)nc1 [Compound 111, N-(5-(3-chloro-5-fluorobenzyl)pyridin-2-yl)-6-(hydroxymethyl)nicotinamide]

- pIC50 [1]: < 4.35
- pIC50 [2]: 7.30
SMILES: Cc1nccc(NC(=O)c2ccc(Cc3cccc(F)c3)cn2)n1 [Compound 115, 5-(3-Fluorobenzyl)-N-(2-methylpyrimidin-4-yl)picolinamide]

- pIC50 [1]: 7.70
- pIC50 [2]: 7.70
SMILES: NCc1ccc(C(=O)Nc2ccc(Cc3cccc(Cl)c3)cn2)cn1 [Compound 121, 6-(aminomethyl)-N-(5-(3-chlorobenzyl)pyridin-2-yl)nicotinamide 2,2,2-trifluoroacetate]
